According to patent publication US20110082133A1, “PYRIDONE COMPOUNDS” (priority 2008, published 2011):

Experiments:
[1] = system: LPS-induced TNF-α production in THP-1 cells; assay: Inhibitory action on LPS-induced TNF-α production in THP-1 cells; type: cell-based; details: Homo sapiens, 3 hours after LPS, ELISA
Experimental: Human monocytic cell line THP-1 cells were suspended in an assay medium (PRMI-1640 containing 10% fetal bovine serum, 100 unit/mL penicillin G sodium, and 100 μg/mL streptomycin sulfate), and seeded onto a 96-well plate at 1×10^5 cells/well. 50 μL/well of an assay medium containing a test compound was added thereto, followed by incubation at 37° C. for 30 minutes. Further, 50 μL/well of an assay medium containing 1 to 5 μg/mL of LPS was added thereto, and the TNF-α concentration in the assay medium of each well after 3 hours was measured. The measurement was carried out by means of a standard ELISA method. A 96-well plate which had been coated overnight with an anti-human TNF monoclonal antibody (clone: MAb1) (manufactured by Becton, Dickinson and Company) as a capture antibody was washed with a wash buffer (PBS containing 0.05% Tween-20), and PBS containing 10% fetal bovine serum was incubated at room temperature for 1 hour to perform blocking. After washing with a wash buffer, 100 μL/well of the assay medium to be measured was incubated at 4° C. overnight. As the standard material to be measured, a recombinant human TNF (manufactured by Becton, Dickinson and Company) was used. After washing with a wash buffer, 100 μL of a biotinylated anti-human TNF monoclonal antibody (clone: MAb11) as a detection antibody was treated at room temperature for 1 hour. After washing with a wash buffer, it was treated with 100 μL/well of an HRP-labeled Streptavidin (manufactured by Zymed Laboratories, Inc.) at room temperature for 30 minutes, and washed again. Treatment was conducted using 100 μL/well of a TMB (3,3′,5,5′-tetramethylbenzidine) substrate liquid at room temperature for 20 minutes in a dark room. A 2 M sulfuric acid was added thereto at 50 μL/well to stop the reaction, and an absorbance at 450 nm/570 nm was measured by means of a plate reader SPECRA max (manufactured by Molecular Devices Inc.).

[2] = biological target: T1, rat EP4 receptor (Rattus norvegicus, UniProt P43114); assay: Evaluation test on EP4 receptor affinity in rat ([3H]PGE2 receptor binding test, membrane fraction); design: expressed in transfected cells; host or cells: HEK293 cells, transient transfection (Lipofectamine 2000); membrane fraction used; details: [3H]PGE2 0.3 nM, membrane fraction of rat EP4 expressing HEK293 cells
T1 sequence (P43114 whole entry): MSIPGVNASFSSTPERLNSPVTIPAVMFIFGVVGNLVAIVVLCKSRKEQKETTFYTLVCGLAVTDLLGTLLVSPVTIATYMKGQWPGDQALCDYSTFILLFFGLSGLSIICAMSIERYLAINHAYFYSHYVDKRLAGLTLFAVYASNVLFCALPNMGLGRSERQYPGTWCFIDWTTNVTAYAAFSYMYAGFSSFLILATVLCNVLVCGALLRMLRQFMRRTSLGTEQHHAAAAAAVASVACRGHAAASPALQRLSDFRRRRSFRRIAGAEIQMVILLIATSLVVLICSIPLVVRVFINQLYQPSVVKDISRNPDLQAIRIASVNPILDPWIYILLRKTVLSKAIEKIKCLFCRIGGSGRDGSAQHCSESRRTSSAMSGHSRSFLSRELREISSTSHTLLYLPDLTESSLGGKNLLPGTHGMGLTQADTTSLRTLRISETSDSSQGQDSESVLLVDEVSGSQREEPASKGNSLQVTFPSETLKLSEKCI
Experimental: A rat EP4 receptor cDNA was subcloned into an expression vector (pcDNA3.1-V5-His-topo, manufactured by Invitrogen Corporation) to prepare a rat EP4 expression vector. HEK293 cells were cultured in a collagen type I-treated 15 cm dish (manufactured by Asahi Techno Glass Co. Ltd.) to a confluence of 70%. An Opti-MEM culture medium at 1.2 mL/dish and a transfection reagent (Lipofectamine 2000, manufactured by Invitrogen Corporation) at 60 μL/dish were mixed, followed by being left to stand at room temperature for 5 minutes. Then, the rat EP4 receptor expression vector at 15 μg/dish was added thereto, followed by being left to stand at room temperature for 30 minutes. The liquid mixture of the transfection reagent was added into the dish, followed by culturing for 20 to 24 hours. The cell culture was carried out in a CO2 incubator (37° C., 5% CO2).
The culture medium was removed by suction, 10 mL of cooled PBS was added thereto per 15 cm dish, and the cells were scraped using a cell scraper. After washed with cooled PBS (1,200 rpm, 4° C., 5 minutes), suspended in 6 mL/dish of cooled 20 mM Tris-HCl (pH 7.4; manufactured by Nacalai Tesque Inc., 5 mM EDTA included) and homogenized using a Polytron, the homogenate was centrifuged (26,000 rpm, 20 minutes, 4° C.). The obtained precipitate was resuspended in cooled 20 mM Tris-HCl and homogenized again using a Polytron, and the homogenate was centrifuged (26,000 rpm, 20 minutes, 4° C.). The obtained precipitate was resuspended in 50 mM HEPES (pH 7.5; manufactured by Dojindo Laboratories) at 1 mL per dish, homogenized using a Polytron, and freeze-stored at −80° C. as a membrane fraction. At this time, a part thereof was used for the measurement of the protein concentration. Measurement of the protein concentration was carried out using a Protein assay stain (manufactured by Bio-Rad Laboratories) in accordance with a standard Protocol as appended in duplicate.
[^3H]PGE2 50 μL (final concentration 0.3 nM; manufactured by Perkin Elmer Co., Ltd.), 100 μL (20 μg/well) of the membrane fraction prepared from the rat EP4 expression cell, and 50 μL of a test compound were mixed in a 96-well microplate (manufactured by Sumitomo Bakelite Co., Ltd.), incubated at room temperature for 1 hour, then filtered by suction on a microplate (UniFilter-96 GF/B, manufactured by Perkin Elmer Co., Ltd.) using a cell harvester (FilterMate Harvester, manufactured by Perkin Elmer Co., Ltd.), and washed three times with 300 μL/well of a cooled assay buffer (50 mM HEPES, 10 mM MgCl2). Dilution of [^3H]PGE2 and the membrane fraction was carried out using the assay buffer, and dilution of the test compound and the unlabeled PGE2 was carried out using dimethyl sulfoxide and the assay buffer. The UniFilter-96 GF/B was treated by preliminarily washing twice with 200 μL/well of the cooled assay buffer. The UniFilter-96 GF/B after filtration was dried in a dryer overnight, 50 μL/well of a liquid scintillation cocktail (MicroScint20, manufactured by Perkin Elmer Co., Ltd.) was added thereto, and the radioactivity was then measured using a liquid scintillation counter for a microplate (TopCount, manufactured by Perkin Elmer Co., Ltd.). For measurement of the non-specific binding, an unlabeled PGE2 (final concentration 1 μM; manufactured by Cayman Chemical Company) was added. All of the measurements were carried out in duplicate, and the specific binding amount was determined by subtracting the non-specific binding amount from the total binding amount.
According to the test method as described above, the rat EP4 receptor affinity (Ki) of the compound of the formula (I) was measured. […] In this connection, Ex means Example Compound number.

[3] = system: TNF-α production; assay: In vivo TNF-α production inhibiting action in rat (LPS-induced plasma TNF-α); design: species or system SD male rats; details: oral administration 1 hour before LPS (10 μg/kg i.v.), plasma TNF-α 90 minutes after LPS
Experimental: LPS (10 μg/kg) was administered to caudal veins of SD male rats, and after 90 minutes from the administration, the heparin blood was collected from the abdominal vena cava to prepare a plasma. The test compound was orally administered 1 hour before the administration of LPS. The amount of TNF-α in the plasma was measured using a BD OptEIA rat TNF ELISA set (manufactured by Becton, Dickinson and Company) according to the attached method. The inhibitory rate by the test compound was determined from the amount of TNF-α in plasma in a control group (administered with a solvent).

[4] = system: hindlimb blood flow; assay: Hindlimb blood flow increasing action in anesthetized rat; type: in vivo, Wistar male rats; details: 2 hours after administration, solvent group set as 100%
Experimental: Wistar male rats were used. The test compound was orally administered, and after 2 hours, the hindlimb blood was measured using a laser blood flow imaging apparatus (PIM II, manufactured by Integral Corporation). At 20 minutes before the measurement, 60 mg/kg of pentobarbital was intraperitoneally administered to conduct anesthesia.

[5] = biological target: T1, rat EP4 receptor; assay: EP4 receptor agonistic action in rat (cAMP increasing action in rat EP4 receptor expression CHO-K1 cells); type: cell-based; design: expressed in transfected cells; details: cAMP increasing action by 1 μM PGE2 taken as 100%
Experimental: The agonistic activity was evaluated by the cAMP increasing action in the rat EP4 receptor expression cells. The rat EP4 receptor expression vector was introduced into CHO-K1 cells (American Type Culture Collection) to prepare a rat EP4 receptor stable expression cell line. These cells were seeded onto a 96-well microplate at 2×10^4 cell/well, and used for the experiment the next day. The culture medium of each well was removed by suction, 100 μL/well of an assay culture medium (2 μM indomethacin, 0.1% bovine serum albumin-containing α-MEM) was added thereto, and incubated at 37° C. for 1 hour. The culture medium was removed again by suction, and replaced with 100 μL/well of an assay culture medium comprising a test compound and 1 mM IBMX (3-isobutyl-1-methylxanthine). After incubating at 37° C. for 30 minutes, the culture medium was removed by suction, 100 μL/well of a cell lysate (0.2% Triton-X100-containing phosphate buffer physiological saline) was put thereinto, and the plate was shaken for 10 minutes. Using a cAMP femto 2 kit (manufactured by Cis Bio International), the cAMP concentration in the cell lysate was measured. Further, the cAMP increasing action (%) was calculated with the cAMP increasing action by 1 μM PGE2 was taken as 100%.

| IC50 [1] | Ki [2] | SMILES | other results |
| --- | --- | --- | --- |
| 12 nM | – | CN(Cc1c(Cl)cc(Cl)c(=O)n1CCc1ccc(C(=O)O)cc1)C1CCCC1 [Ex 26] | – |
| 12 nM | 25 nM | Cc1cc(C2CC2)c(CN2CCC[C@@H]2CC(C)C)n(CCc2ccc(C(=O)O)cc2)c1=O [Ex 27] | – |
| 15 nM | 0.52 nM | CCC[C@H]1CCCN1Cc1c(Cl)cc(Cl)c(=O)n1CCc1ccc(-c2nnn[nH]2)cc1 [Ex 42] | ED50 [3]: 0.076 mg/kg |
| – | 28 nM | CCc1cccc(N(C)Cc2c(Cl)cc(Cl)c(=O)n2CCc2ccc(C(=O)O)cc2)c1 [Example 106] | Blood flow relative to the group administered with the solvent ([4]; dose 0.3 mg/kg oral): 126% |
| 2.7 nM | 3.3 nM | CN(Cc1c(Cl)cc(Cl)c(=O)n1CCc1ccc(C(=O)O)cc1)c1cccc(C(F)(F)F)c1 [Example 159] | Blood flow relative to the group administered with the solvent ([4]; dose 0.1 mg/kg oral): 122% |
| 13 nM | 2.2 nM | Cc1cc(C)c(=O)n(CCc2ccc(-c3n[nH]c(=O)o3)cc2)c1CN1CCC[C@@H]1CC(C)C [Example 345] | ED50 [3]: 1.9 mg/kg |
| – | 2.8 nM | Cc1cc(C2CC2)c(CN2CCC[C@@H]2CC(C)C)n(CCc2ccc(-c3n[nH]c(=O)o3)cc2)c1=O [Example 346] | ED50 [3]: 2 mg/kg |

Second part, the compound before the results:

| SMILES | IC50 [1] | Ki [2] | other results |
| --- | --- | --- | --- |
| CCOc1ccc2c(c1)N(Cc1c(Cl)cc(Cl)c(=O)n1CCc1ccc(C(=O)O)cc1)CC2 [Example 10, 4-(2-{3,5-dichloro-6-[(6-ethoxy-2,3-dihydro-1H-indol-1-yl)methyl]-2-oxopyridin-1(2H)-yl}ethyl)benzoic acid] | – | 3.2 nM | Blood flow relative to the group administered with the solvent ([4]; dose 0.3 mg/kg oral): 124% |
| CCc1cccc2c1N(Cc1c(Cl)cc(Cl)c(=O)n1CCc1ccc(C(=O)O)cc1)CC2 [Example 13] | 7.4 nM | 24 nM | – |
| Cc1c(F)ccc2c1N(Cc1c(Cl)cc(Cl)c(=O)n1CCc1ccc(C(=O)O)cc1)CC2 [Example 149] | 2.8 nM | 9.5 nM | – |
| CCC[C@H]1CCCN1Cc1c(Br)ccc(=O)n1CCc1ccc(C(=O)O)cc1 [Example 207] | – | – | Blood flow relative to the group administered with the solvent ([4]; dose 1 mg/kg oral): 140% |
| CCC[C@H]1CCCN1Cc1c(Cl)cc(Cl)c(=O)n1CCc1ccc(-c2n[nH]c(=O)o2)cc1 [Example 208] | – | 2.9 nM | cAMP increasing action (%) at 10 μM [5]: 83% |
